Structures are written as SMILES.

Experimental findings from paper PMC5218480 (PLoS ONE, 2017) are described below.

The subject of the assay is MV-4-11 cells. The assay is described as follows: Gene expression microarray analysis (Affymetrix PrimeView) and GSEA. Details: RFU PODN (11730768_x_at) / Fold change /veh PODN (11730768_x_at) / RFU LINC00158 (11744669_a_at) / Fold change /veh LINC00158 (11744669_a_at) / RFU DUSP10 (11751237_a_at) / Fold change /veh DUSP10 (11751237_a_at) / RFU ID3 (11757404_x_at) / Fold change /veh ID3 (11757404_x_at) / RFU PLEKHG5 (11737974_s_at) / Fold change /veh PLEKHG5 (11737974_s_at) / RFU LRRC4B (11730491_at) / Fold change /veh LRRC4B (11730491_at) / RFU GIMAP4 (11747438_a_at) / Fold change /veh GIMAP4 (11747438_a_at) / RFU KRT8 (11758183_x_at) / Fold change /veh KRT8 (11758183_x_at) / RFU CNN1 (11734310_a_at) / Fold change /veh CNN1 (11734310_a_at) / RFU VPS37D (11726825_at) / Fold change /veh VPS37D (11726825_at) / RFU C10orf10 (11716522_x_at) / Fold change /veh C10orf10 (11716522_x_at) / RFU KIR2DL2 /// KIR2DL4 /// KIR2DL5A /// KIR2DL5B /// KIR2DS1 /// KIR2DS2 /// KIR2DS3 /// KIR2DS4 /// KIR3DL3 /// KIR3DL3 /// KIR3DS1 (11738374_at) / Fold change /veh KIR2DL2 /// KIR2DL4 /// KIR2DL5A /// KIR2DL5B /// KIR2DS1 /// KIR2DS2 /// KIR2DS3 /// KIR2DS4 /// KIR3DL3 /// KIR3DL3 /// KIR3DS1 (11738374_at) / RFU C1QL1 (11718748_at) / Fold change /veh C1QL1 (11718748_at) / RFU TMPRSS4 (11747572_a_at) / Fold change /veh TMPRSS4 (11747572_a_at) / RFU HAMP (11756126_x_at) / Fold change /veh HAMP (11756126_x_at) / RFU RNFT2 (11725882_a_at) / Fold change /veh RNFT2 (11725882_a_at) / RFU NR4A2 (11747474_a_at) / Fold change /veh NR4A2 (11747474_a_at) / RFU ABCC12 (11746883_a_at) / Fold change /veh ABCC12 (11746883_a_at) / RFU TMEM136 (11760407_x_at) / Fold change /veh TMEM136 (11760407_x_at) / RFU CLDN22 /// WWC2 (11732394_at) / Fold change /veh CLDN22 /// WWC2 (11732394_at) / RFU HLA-DPB1 (11760878_x_at) / Fold change /veh HLA-DPB1 (11760878_x_at) / RFU SPINT1 (11716480_a_at) / Fold change /veh SPINT1 (11716480_a_at) / RFU GAP43 (11754022_s_at) / Fold change /veh GAP43 (11754022_s_at) / RFU A4GNT (11735810_at) / Fold change /veh A4GNT (11735810_at) / RFU PRB3 (11715151_x_at) / Fold change /veh PRB3 (11715151_x_at) / RFU TUBB4B (11761932_at) / Fold change /veh TUBB4B (11761932_at) / RFU CAPN14 (11732068_a_at) / Fold change /veh CAPN14 (11732068_a_at) / RFU TMCC2 (11721928_a_at) / Fold change /veh TMCC2 (11721928_a_at) / RFU IRGQ (11745062_a_at) / Fold change /veh IRGQ (11745062_a_at) / RFU FAM174B (11720279_a_at) / Fold change /veh FAM174B (11720279_a_at) / RFU TMPRSS4 (11748680_a_at) / Fold change /veh TMPRSS4 (11748680_a_at) / RFU FAM212B (11763350_a_at) / Fold change /veh FAM212B (11763350_a_at) / RFU PLEKHG5 (11743358_a_at) / Fold change /veh PLEKHG5 (11743358_a_at) / RFU ZSCAN30 (11745921_a_at) / Fold change /veh ZSCAN30 (11745921_a_at) / RFU CMKLR1 (11741424_a_at) / Fold change /veh CMKLR1 (11741424_a_at) / RFU LOC101060620 /// MAPK8IP1 (11723275_at) / Fold change /veh LOC101060620 /// MAPK8IP1 (11723275_at) / RFU SPTSSB (11747773_x_at) / Fold change /veh SPTSSB (11747773_x_at) / RFU PRSS12 (11739890_at) / Fold change /veh PRSS12 (11739890_at) / RFU BIN1 (11741810_x_at) / Fold change /veh BIN1 (11741810_x_at) / RFU WNT11 (11732464_a_at) / Fold change /veh WNT11 (11732464_a_at) / RFU C10orf10 (11716521_a_at) / Fold change /veh C10orf10 (11716521_a_at) / RFU C5orf56 (11738089_at) / Fold change /veh C5orf56 (11738089_at) / RFU CYB561 (11721691_x_at) / Fold change /veh CYB561 (11721691_x_at) / RFU ANKRD19P (11752326_a_at) / Fold change /veh ANKRD19P (11752326_a_at) / RFU OR2T12 /// OR2T33 /// OR2T8 (11738714_s_at) / Fold change /veh OR2T12 /// OR2T33 /// OR2T8 (11738714_s_at) / RFU VCAN (11748164_a_at) / Fold change /veh VCAN (11748164_a_at) / RFU JSRP1 (11732532_at) / Fold change /veh JSRP1 (11732532_at) / RFU KRTAP10-11 (11738290_x_at) / Fold change /veh KRTAP10-11 (11738290_x_at) / RFU MYO3A (11730013_a_at) / Fold change /veh MYO3A (11730013_a_at) / RFU EBF3 (11725865_a_at) / Fold change /veh EBF3 (11725865_a_at) / RFU CAMK2N1 (11719241_x_at) / Fold change /veh CAMK2N1 (11719241_x_at) / RFU C5orf56 (11738088_a_at) / Fold change /veh C5orf56 (11738088_a_at) / RFU OLFML3 (11715873_a_at) / Fold change /veh OLFML3 (11715873_a_at) / RFU LOC100653217 /// NTM (11731650_a_at) / Fold change /veh LOC100653217 /// NTM (11731650_a_at) / RFU MAPK11 (11762145_a_at) / Fold change /veh MAPK11 (11762145_a_at) / RFU FIZ1 (11724087_x_at) / Fold change /veh FIZ1 (11724087_x_at) / RFU OASL (11726364_x_at) / Fold change /veh OASL (11726364_x_at) / RFU SOX15 (11748057_x_at) / Fold change /veh SOX15 (11748057_x_at) / RFU CD79A (11719716_a_at) / Fold change /veh CD79A (11719716_a_at) / RFU HIST1H1D (11736915_at) / Fold change /veh HIST1H1D (11736915_at) / RFU CASKIN2 (11723855_a_at) / Fold change /veh CASKIN2 (11723855_a_at) / RFU LOC730098 (11760151_x_at) / Fold change /veh LOC730098 (11760151_x_at) / RFU OR4N2 (11742367_at) / Fold change /veh OR4N2 (11742367_at) / RFU PRRT2 (11749266_a_at) / Fold change /veh PRRT2 (11749266_a_at) / RFU SNX32 (11753110_a_at) / Fold change /veh SNX32 (11753110_a_at) / RFU CDHR5 (11726645_a_at) / Fold change /veh CDHR5 (11726645_a_at) / RFU RCAN1 (11760418_a_at) / Fold change /veh RCAN1 (11760418_a_at) / RFU FAM167A (11723789_a_at) / Fold change /veh FAM167A (11723789_a_at) / RFU FAM26E (11764081_at) / Fold change /veh FAM26E (11764081_at) / RFU ISYNA1 (11749810_s_at) / Fold change /veh ISYNA1 (11749810_s_at) / RFU ACY1 (11761880_at) / Fold change /veh ACY1 (11761880_at) / RFU 11764098_at / Fold change /veh 11764098_at / RFU SAMD14 (11745864_x_at) / Fold change /veh SAMD14 (11745864_x_at) / RFU NPB (11741838_a_at) / Fold change /veh NPB (11741838_a_at) / RFU TMPRSS6 (11731388_a_at) / Fold change /veh TMPRSS6 (11731388_a_at) / RFU KRTAP10-2 (11738614_at) / Fold change /veh KRTAP10-2 (11738614_at) / RFU ARHGAP8 /// PRR5-ARHGAP8 (11727945_x_at) / Fold change /veh ARHGAP8 /// PRR5-ARHGAP8 (11727945_x_at) / RFU KRTAP5-7 /// NADSYN1 (11734609_at) / Fold change /veh KRTAP5-7 /// NADSYN1 (11734609_at) / RFU RASL12 (11751679_a_at) / Fold change /veh RASL12 (11751679_a_at) / RFU CDKN2B (11736163_a_at) / Fold change /veh CDKN2B (11736163_a_at) / RFU PRF1 (11729649_at) / Fold change /veh PRF1 (11729649_at) / RFU, ZNF638 /// ZNF638-IT1 / Fold change vs veh, ZNF638 /// ZNF638-IT1 / RFU, PANK3 / Fold change vs veh, PANK3 / RFU, SH3YL1 / Fold change vs veh, SH3YL1 / RFU, ZEB2 / Fold change vs veh, ZEB2 / RFU, NRIP1 / Fold change vs veh, NRIP1 / RFU, PTTG1IP / Fold change vs veh, PTTG1IP / RFU, CAPN2 / Fold change vs veh, CAPN2 / RFU, MED14 / Fold change vs veh, MED14 / RFU, SNORA58 / Fold change vs veh, SNORA58 / RFU, C1orf63 / Fold change vs veh, C1orf63 / RFU, LRRFIP1 / Fold change vs veh, LRRFIP1 / RFU, NDUFAF7 / Fold change vs veh, NDUFAF7 / RFU, SLC12A2 / Fold change vs veh, SLC12A2 / RFU, IBTK / Fold change vs veh, IBTK / RFU, ESF1 / Fold change vs veh, ESF1 / Fold change vs veh, TMEM50B / RFU, TAOK1 / Fold change vs veh, TAOK1 / RFU, ACBD3 / Fold change vs veh, ACBD3 / RFU, TMA16 / Fold change vs veh, TMA16 / RFU, RWDD3 / Fold change vs veh, RWDD3 / RFU, BCAT1 / Fold change vs veh, BCAT1 / RFU, EDEM3 / Fold change vs veh, EDEM3 / RFU, TMEM33 / Fold change vs veh, TMEM33 / RFU, WDR75 / Fold change vs veh, WDR75 / RFU, AHCTF1 / Fold change vs veh, AHCTF1 / RFU, TFRC / Fold change vs veh, TFRC / RFU, ZDHHC17 / Fold change vs veh, ZDHHC17 / RFU, NOM1 / Fold change vs veh, NOM1 / RFU, ARL8B / Fold change vs veh, ARL8B / RFU, ZBTB11 / Fold change vs veh, ZBTB11 / RFU, TAMM41 / Fold change vs veh, TAMM41 / RFU, KIAA1704 /// LOC100996395 / Fold change vs veh, KIAA1704 /// LOC100996395 / RFU, ING1 / Fold change vs veh, ING1 / RFU, TRMT61B / Fold change vs veh, TRMT61B / RFU, FUBP3 / Fold change vs veh, FUBP3 / RFU, TP53 / Fold change vs veh, TP53 / RFU, TNKS2 / Fold change vs veh, TNKS2 / RFU, ZFP14 / Fold change vs veh, ZFP14 / RFU, ACTR2 / Fold change vs veh, ACTR2 / RFU, PPP3R1 / Fold change vs veh, PPP3R1 / RFU, PIK3R1 / Fold change vs veh, PIK3R1 / RFU, HNRNPA1 / Fold change vs veh, HNRNPA1 / RFU, RNF170 / Fold change vs veh, RNF170 / RFU, ZNF28 / Fold change vs veh, ZNF28 / RFU, RNGTT / Fold change vs veh, RNGTT / RFU, OGT / Fold change vs veh, OGT / RFU, BRD1 / Fold change vs veh, BRD1 / RFU, MARS / Fold change vs veh, MARS / RFU, ZNF655 / Fold change vs veh, ZNF655 / RFU, FAHD1 / Fold change vs veh, FAHD1 / RFU, BDP1 / Fold change vs veh, BDP1 / RFU, LRRCC1 / Fold change vs veh, LRRCC1 / RFU, ARID1A / Fold change vs veh, ARID1A / RFU, ZNF146 / Fold change vs veh, ZNF146 / RFU, ZNF330 / Fold change vs veh, ZNF330 / RFU, GPN3 / Fold change vs veh, GPN3 / RFU, C9orf123 / Fold change vs veh, C9orf123 / RFU, N4BP2L2 / Fold change vs veh, N4BP2L2 / RFU, ARFIP1 / Fold change vs veh, ARFIP1 / RFU, FAM179B / Fold change vs veh, FAM179B / RFU, BCL10 / Fold change vs veh, BCL10 / RFU, UHRF1BP1L / Fold change vs veh, UHRF1BP1L / RFU, BET1 / Fold change vs veh, BET1 / RFU, CNOT2 / Fold change vs veh, CNOT2 / RFU, ZNF268 / Fold change vs veh, ZNF268 / Fold change vs veh, ZNF507 / RFU, DGCR2 / Fold change vs veh, DGCR2 / RFU, WDSUB1 / Fold change vs veh, WDSUB1 / Fold change vs veh, HSP90B1 /// MIR3652 / RFU, ADSS / Fold change vs veh, ADSS / RFU, GK / Fold change vs veh, GK / RFU, ZNF148 / Fold change vs veh, ZNF148 / RFU, TAF9 / Fold change vs veh, TAF9 / RFU, SLC1A5 / Fold change vs veh, SLC1A5 / RFU, SLMO2 / Fold change vs veh, SLMO2 / RFU, ABCC4 / Fold change vs veh, ABCC4 / RFU, LOC101060439 /// RAP1B / Fold change vs veh, LOC101060439 /// RAP1B / RFU, RFX7 / Fold change vs veh, RFX7 / RFU, GTPBP10 / Fold change vs veh, GTPBP10 / RFU, CNEP1R1 / Fold change vs veh, CNEP1R1 / RFU, BIVM-ERCC5 /// ERCC5 / Fold change vs veh, BIVM-ERCC5 /// ERCC5 / RFU, ILF3 / Fold change vs veh, ILF3 / RFU 11762660_at / Fold change /veh 11762660_at / RFU VCAN (11757783_s_at) / Fold change /veh VCAN (11757783_s_at) / RFU DDX43 (11728927_at) / Fold change /veh DDX43 (11728927_at) / RFU KRT8 (11758188_x_at) / Fold change /veh KRT8 (11758188_x_at) / RFU NKD1 (11759106_at) / Fold change /veh NKD1 (11759106_at) / RFU SRD5A1 (11742802_a_at) / Fold change /veh SRD5A1 (11742802_a_at) / RFU TPSAB1 /// TPSB2 (11721975_s_at) / Fold change /veh TPSAB1 /// TPSB2 (11721975_s_at) / RFU GSTM3 (11746129_a_at) / Fold change /veh GSTM3 (11746129_a_at) / RFU IL23R (11737362_x_at) / Fold change /veh IL23R (11737362_x_at) / RFU TMEM51 (11727254_a_at) / Fold change /veh TMEM51 (11727254_a_at) / RFU PIWIL2 (11732686_x_at) / Fold change /veh PIWIL2 (11732686_x_at) / RFU ORM1 (11744905_x_at) / Fold change /veh ORM1 (11744905_x_at) / RFU CCDC152 (11743942_at) / Fold change /veh CCDC152 (11743942_at) / RFU ECM1 (11717891_a_at) / Fold change /veh ECM1 (11717891_a_at) / RFU IL23R (11748794_a_at) / Fold change /veh IL23R (11748794_a_at) / RFU TNFAIP8L3 (11732012_x_at) / Fold change /veh TNFAIP8L3 (11732012_x_at) / RFU MBOAT4 (11741988_at) / Fold change /veh MBOAT4 (11741988_at) / RFU 11764193_at / Fold change /veh 11764193_at / RFU TMEM53 (11763286_at) / Fold change /veh TMEM53 (11763286_at) / RFU MAGEB2 (11727129_at) / Fold change /veh MAGEB2 (11727129_at) / RFU TMEM200A (11744735_a_at) / Fold change /veh TMEM200A (11744735_a_at) / RFU CCDC152 (11751479_a_at) / Fold change /veh CCDC152 (11751479_a_at) / RFU FAM211A (11726209_a_at) / Fold change /veh FAM211A (11726209_a_at) / RFU RGS16 (11746705_a_at) / Fold change /veh RGS16 (11746705_a_at) / RFU VCAN (11755009_s_at) / Fold change /veh VCAN (11755009_s_at) / RFU RHOB (11743442_s_at) / Fold change /veh RHOB (11743442_s_at) / RFU RGS16 (11720943_a_at) / Fold change /veh RGS16 (11720943_a_at) / RFU RGS16 (11720944_at) / Fold change /veh RGS16 (11720944_at) / RFU, VPS4B / Fold change vs veh, VPS4B / RFU, CREB1 / Fold change vs veh, CREB1 / RFU, DNAJC13 / Fold change vs veh, DNAJC13 / RFU, GNAQ / Fold change vs veh, GNAQ / RFU, CDK5R1 / Fold change vs veh, CDK5R1 / RFU, ZRANB3 / Fold change vs veh, ZRANB3 / RFU, CUL4A / Fold change vs veh, CUL4A / RFU, CCNY / Fold change vs veh, CCNY / RFU, UFL1 / Fold change vs veh, UFL1 / RFU, COG3 / Fold change vs veh, COG3 / RFU, DIAPH2 / Fold change vs veh, DIAPH2 / RFU, SKA2 / Fold change vs veh, SKA2 / RFU, AFF3 / Fold change vs veh, AFF3 / RFU, LMF1 / Fold change vs veh, LMF1 / RFU, IPO11 / Fold change vs veh, IPO11 / RFU, DFFB / Fold change vs veh, DFFB / RFU, FOXP1 / Fold change vs veh, FOXP1 / RFU, CARD8 / Fold change vs veh, CARD8 / RFU, STRN3 / Fold change vs veh, STRN3 / RFU, ADK / Fold change vs veh, ADK / RFU, RASSF2 / Fold change vs veh, RASSF2 / RFU, WIPF1 / Fold change vs veh, WIPF1 / RFU, LARP1B / Fold change vs veh, LARP1B / RFU, RASA1 / Fold change vs veh, RASA1 / RFU, RB1 / Fold change vs veh, RB1 / RFU, PPFIA1 / Fold change vs veh, PPFIA1 / RFU, MAT2A / Fold change vs veh, MAT2A / RFU, CCT5 / Fold change vs veh, CCT5 / RFU, WDR92 / Fold change vs veh, WDR92 / RFU, CUX1 / Fold change vs veh, CUX1 / RFU, TTC7A / Fold change vs veh, TTC7A / RFU, TMEM135 / Fold change vs veh, TMEM135 / RFU, DEPTOR / Fold change vs veh, DEPTOR / RFU, CPM / Fold change vs veh, CPM / RFU, DNAJB6 / Fold change vs veh, DNAJB6 / RFU, CACNA2D3 / Fold change vs veh, CACNA2D3 / RFU, DTX4 / Fold change vs veh, DTX4 / RFU, TFCP2 / Fold change vs veh, TFCP2 / RFU, GMCL1 /// GMCL1P1 / Fold change vs veh, GMCL1 /// GMCL1P1 / RFU, AEBP2 / Fold change vs veh, AEBP2 / RFU, SNHG1 /// SNORD22 /// SNORD25 /// SNORD26 /// SNORD27 /// SNORD28 /// SNORD29 /// SNORD31 / Fold change vs veh, SNHG1 /// SNORD22 /// SNORD25 /// SNORD26 /// SNORD27 /// SNORD28 /// SNORD29 /// SNORD31 / Fold change (Aza/veh), C12orf56 (ProbeSet 11735607_a_at) / Fold change (ACY-1035/veh), C12orf56 (ProbeSet 11735607_a_at) / Fold change (Aza/veh), FGFR1OP (ProbeSet 11751329_s_at) / Fold change (ACY-1035/veh), FGFR1OP (ProbeSet 11751329_s_at) / Fold change (Aza/veh), VPS36 (ProbeSet 11739960_a_at) / Fold change (ACY-1035/veh), VPS36 (ProbeSet 11739960_a_at) / RFU SYPL1 (11715823_x_at) / Fold change /veh SYPL1 (11715823_x_at) / RFU IGFBP7 (11715501_s_at) / Fold change /veh IGFBP7 (11715501_s_at) / RFU REEP3 (11722064_at) / Fold change /veh REEP3 (11722064_at) / RFU IGLL1 (11728026_x_at) / Fold change /veh IGLL1 (11728026_x_at): dose or concentration left out as unconfirmed. Conditions: ProbeSet 11763895_x_at; LIST B. The format is cell-based, human.

In the case of `Nc1ncn([C@@H]2O[C@H](CO)[C@@H](O)[C@H]2O)c(=O)n1` [azacitidine], the “RFU, SNORA58” value worked out at 17.25 RFU.
